In patent publication US5843941A, “Ras farnesyl transferase inhibitors” (Genentech, Inc., priority 1994, dated 1998):
Where two headings read alike, the source gives them in different places.

Assays:
[1] = tested on: farnesylated proteins F1, F2 and F3 in Met18b-2 cells; experiment: Inhibition of intracellular farnesylation in intact Met18b-2 cells, Triton-soluble proteins F1, F2, F3; format: cell-based, Chinese hamster; conditions: for EC90: Cricetulus griseus, read-out: EC 90% "B isomer"
From the text: To study farnesylation in intact cells we used Met18b-2 cells, a line of Chinese hamster ovary (CHO) cells that takes up [3H]mevalonate efficiently (see Faust, J., and Krieger, M. J. Biol. Chem. 262, 1966 (1987)) owing to the production of a mevalonate transport protein (see Kim, C. M., Goldstein, J. L., Brown, M. S. J. Biol. Chem. 267, 23113 (1992)). The [3H]mevalonate is converted by the cells into [3H]farnesyl pyrophosphate and [3H]geranylgeranyl pyrophosphate, which are then attached to proteins (Kim, C. M., Goldstein, J. L., Brown, M. S. J. Biol. Chem. 267, 23113 (1992)). In the assay, stock cultures of Met18b-2 cells were seeded at a density of 3-105 cells per 60 mm dish in 3 ml of medium A (Dulbecco's modified Eagle medium/Ham's F12 medium (1:1, v/v) containing 100 U/ml penicillin and 100 μg/ml streptomycin) supplemented with 5% (v/v) fetal calf serum (FCS). On day 3, each monolayer was refed with 1 ml medium A supplemented with 1% FCS (dialyzed against 0.15 M NaCl). At this point the cells were treated with 100 μM compactin (see Brown, M. S., Faust, J. R., Goldstein, J. L., Kaneko, I., and Endo, A. J. Biol. Chem. 253, 1121 (1978)) which blocks the synthesis of unlabeled mevalonate within the cells. Each compound was dissolved at 25 mM in DMSO/10 mM DTT immediately before use and 10 μl of this solution added directly. After 2 hr incubation at 37° C., each monolayer received 100 μCi [3H]mevalonate (60 Ci/mmol, American Radiolabeled Chemicals, Inc.) added in 100 μl of the medium A, and the incubation continued for 4 hr. The cells were harvested by rinsing three times with 3 ml of 50 mM Tris-HCl/0.15 M NaCl (pH 7.5). 300 μl of lysis buffer (0.5X Dulbecco's phosphate-buffered saline containing 1% Triton X-100, 5 μg/ml leupeptin, 5 μg/ml pepstatin, 0.5 mM phenylmethylsulfonyl fluoride, and 0.05 U/ml aprotinin) was added to each monolayer. After incubation on ice for 5 mon, the lysates were centrifuged 30 sec in a microfuge at 12,000 g. The resulting supernatant was tranferred to a new tube, and each pellet was resuspended in 60 μl of lysis buffer. Protein concentrations were determined using the BCA protein assay reagent (Pierce) according to the manufacturer's instructions. Detergent-soluble (supernatant) and -insoluble (pellet) samples were mixed with 2X SDS sample buffer (see Laemmli, U. K. Nature 227, 680 (1970)) and heated at 95° C. for 5 min before electrophoresis. Each lane contained 90 μg protein, and was run on a 12.5% SDS-polyacrylamide gel. The gel was dried, treated with ENTENSIFY (NEN-DuPont), and exposed to Kodak XOMAT-AR film for 9 h at -80° C. to allow visualization of all prenylated proteins. Migration of [14C]methylated molecular weight standards (Amersham) were used as markers.
The results of this assay are shown in FIG. 3, using a final concentration of 250 μM for each inhibitor. […] As shown in the figure, none of the control peptides or control benzodiazepine-peptideomimetics altered the prenylation of proteins in intact cells.
Using the same cells and procedures followed above for Example 125, we measured the dose dependence upon the inhibition of farnesylation in intact cells. […] Compound 37B inhibited the famesylation of F1-3 detectably at 10 μM, and almost completely at 25 μM.
In this manner, it is possible to obtain data regarding the comparative potency of these inhibitors upon the level of intracellular farnesylation. We have chosen to report the EC90% values for these inhibitors as the concentration required for a reduction in the Triton- soluble labelling (denoted F-1, F-2, and F-3) to 90% of control cells (untreated).

CAAX farnesyltransferase [2] = target: T1, CAAX farnesyltransferase (Rattus norvegicus, UniProt Q02293+Q04631); experiment: In vitro farnesylation of the compound by CAAX farnesyltransferase (substrate test, thin layer chromatography); format: biochemical; conditions: relative to tetrapeptide CVIM, 3.6 μM, 37° C., 30 min; for % farnesylation "A": diastereomer A; for % farnesylation "B": diastereomer B
Protocol: After incubation at 37° C. for 30 min, the reaction was stopped by addition of 2 μl of 250 mM EDTA, and the entire reaction mixture was spotted onto a plastic-backed Silica Gel G thin layer sheet (20×20 cm, Brinkmann Inst.) and placed in a tank containing n-propyl alcohol/ammonium hydroxide/water (6:3:1 v/v/v).

CAAX farnesyltransferase [3] = target: T1, CAAX farnesyltransferase; experiment: In vitro inhibition of CAAX farnesyltransferase; format: biochemical; parameters: purified to homogeneity from rat brain homogenates; from tissue; host or cells: rat brain; alternatively recombinant enzyme from a baculovirus expression system; conditions: Table D
Method in brief: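 Native or recombinant (baculovirus-infected cells, Q-Sepharose purified) farnesyltransferase incubated 30 min at 37 °C. [3H]farnesyl transfer to p21H-ras measured by SDS/trichloroacetic acid precipitation, nitrocellulose filtration and scintillation counting.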

[4] = diastereomer A, read-out: EC50 (μM) "A"
[5] = diastereomer B, read-out: EC50 (μM) "B"

T1 sequence (Q02293 whole entry, one chain of several): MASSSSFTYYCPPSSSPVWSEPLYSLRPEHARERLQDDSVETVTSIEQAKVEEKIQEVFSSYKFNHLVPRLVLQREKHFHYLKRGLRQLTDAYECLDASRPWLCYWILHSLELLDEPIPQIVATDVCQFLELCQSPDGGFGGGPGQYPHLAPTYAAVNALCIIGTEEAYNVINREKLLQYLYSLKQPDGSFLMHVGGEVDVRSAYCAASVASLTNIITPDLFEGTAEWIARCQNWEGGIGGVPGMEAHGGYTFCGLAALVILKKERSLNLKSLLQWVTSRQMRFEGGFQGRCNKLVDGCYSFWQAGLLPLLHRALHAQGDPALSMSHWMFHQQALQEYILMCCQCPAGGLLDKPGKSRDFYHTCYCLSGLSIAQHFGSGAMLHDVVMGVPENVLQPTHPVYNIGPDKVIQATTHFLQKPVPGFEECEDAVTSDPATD

SMILES | relative potency in intact cells ([1]; dose dependence, FIG. 4, compared with 27B and 37B) | % farnesylation "A" (CAAX farnesyltransferase [2]) | % farnesylation "B" (CAAX farnesyltransferase [2]) | EC50 (CAAX farnesyltransferase [3]; [4]) | EC50 (CAAX farnesyltransferase [3]; [5]) | EC90 [1]
CSCC[C@H](NC(=O)CN1C(=O)C(N(C)C(=O)[C@@H](N)CS)N=C(c2ccccc2)c2ccccc21)C(N)=O (single isomer, unassigned) [33B, N-[[3-[(2-amino-3-mercapto-1-oxopropyl)methylamino]-2,3-dihydro-2-oxo-5phenyl-1H-1,4-benzodiazepin-1-yl]acetyl]-L-methionine amide] | of intermediate potency | – | – | – | – | –
CSCC[C@H](NC(=O)CN1C(=O)C(NC(=O)[C@@H](N)CS)N=C(c2ccccc2)c2ccccc21)C(=O)O (stereo partly drawn) [compound 28, N-[[3-[(2-amino-3-mercapto-1-oxopropyl)amino]-2,3-dihydro-2-oxo-5phenyl-1H-1,4-benzodiazepin-1-yl]acetyl]-L-methionine] | – | 9% | < 1% | 0.38 µM | 0.431 µM | –
CSCC[C@H](NC(=O)CN1C(=O)C(N(C)C(=O)CCS)N=C(c2ccccc2)c2ccccc21)C(=O)O (stereo partly shown) [compound 29] | – | < 1% | < 1% | 1.8 µM | 1.8 µM | –
CN(C(=O)[C@@H](N)CS)C1N=C(c2ccccc2)c2ccccc2N(CC(=O)N[C@@H](CO)C(=O)O)C1=O (stereo partly shown) [compound 30] | – | < 1% | < 1% | 10 µM | 0.0084 µM | –
CC(C)C[C@H](NC(=O)CN1C(=O)C(N(C)C(=O)[C@@H](N)CS)N=C(c2ccccc2)c2ccccc21)C(=O)O (stereo partly drawn) [compound 31, N-[[3-[(2-amino-3-mercapto-1-oxopropyl)methylamino]-2,3-dihydro-2-oxo-5-phenyl-1H -1,4-benzodiazepin-1-yl]acetyl]-L-leucine] | – | < 1% | < 1% | 0.084 µM | 0.0021 µM | –
CSCC[C@H](NC(=O)CN1C(=O)C(N(C)C(=O)[C@H](CS)NC(C)=O)N=C(c2ccccc2)c2ccccc21)C(=O)O (stereo partly drawn) [compound 32, N-[[3-[(2-acetylamino-3-mercapto-1-oxopropyl)methylamino]-2,3-dihydro-2-oxo-5-phenyl-1H-1,4-benzodiazepin-1-yl]acetyl]-L-methionine] | – | 110% | < 1% | 1.2 µM | 8 µM | –
CN(C(=O)[C@@H](N)CS)C1N=C(c2ccccc2)c2ccccc2N(CC(=O)N[C@@H](Cc2ccccc2)C(=O)O)C1=O (stereo partly drawn) [compound 34, N-[[3-[(2-amino-3-mercapto-1-oxopropyl)methylamino]-2,3-dihydro-2-oxo-5-phenyl-1H-1,4-benzodiazepin-1-yl]acetyl]-L-phenylalanine] | – | – | < 1% | 0.54 µM | 0.0005 µM | –
COC(=O)[C@H](CCSC)NC(=O)CN1C(=O)C(N(C)C(=O)[C@@H](N)CS)N=C(c2ccccc2)c2ccccc21 (stereo partly shown) [compound 37] | – | < 1% | 2% | 0.19 µM | 0.05 µM | –
CSCC[C@H](NC(=O)CN1C(=O)C(N(C)C(=O)C2CSC(C)N2)N=C(c2ccccc2)c2ccccc21)C(=O)O (stereo partly drawn) [compound 43, N-[[3-[(2-methylthiazolidine-4-carboxyl)methylamino] -2,3-dihydro-2-oxo-5-phenyl-1H-1,4-benzodiazepin-1-yl]acetyl]-L-methionine] | – | < 1% | < 1% | 0.32 µM | 0.006 µM | –
CC(C)C[C@H](NC(=O)CN1C(=O)C(N(C)C(=O)[C@@H](N)CS)N=C(c2ccccc2)c2ccccc21)c1nnn[nH]1 (stereo partly drawn) [compound 46, N-[[3-[(2-amino-3-mercapto-1-oxopropyl)methylamino]-2,3-dihydro-2-oxo-5-phenyl-1H-1,4-benzodiazepin-1-yl]acetyl]-L-leucine tetrazole] | – | – | < 1% | 0.26 µM | 0.0016 µM | –
COC(=O)c1cccc(CN2C(=O)C(N(C)C(=O)[C@@H](N)CSSC(C)(C)C)N=C(c3ccccc3)c3cc(Cl)ccc32)c1 (stereo partly shown) [compound 99, N-[[3-[(2-amino-3-tert-butylthiomercapto-1-oxopropyl)methylamino]-2,3-dihydro-2-oxo-5-phenyl-7-chloro-1H-1,4-benzodiazepin-1-yl]methyl]-3-carboxymethylbenzene] | – | – | – | – | 0.38 µM | 30000 nM
COC(=O)c1cccc(CN2C(=O)C(N(C)C(=O)[C@@H]3CSC(C)N3)N=C(c3ccccc3)c3cc(Cl)ccc32)c1 (stereo partly shown) [compound 100, N-[[3-[(2-methylthiazolidine-4-carboxyl)methylamino]-2,3-dihydro-2-oxo-5-phenyl-7-chloro-1H-1,4-benzodiazepin-1-yl]methyl]-3-carboxymethylbenzene] | – | – | – | 0.52 µM | 0.034 µM | 30000 nM
CN(C(=O)[C@@H](N)CS)C1N=C(c2ccccc2)c2cc(Cl)ccc2N(Cc2ccc(C#N)cc2)C1=O (stereo partly shown) [compound 101, N-[[3-[(2-amino-3-mercapto-1-oxopropyl)methylamino]-2,3-dihydro-2-oxo-5-phenyl-7-chloro-1H-1,4-benzodiazepin-1-yl]methyl]4-benzonitrile] | – | – | – | 3 µM | 0.0009 µM | 20000 nM
CN(C(=O)[C@@H](N)CS)C1N=C(c2ccccc2)c2cc(Cl)ccc2N(Cc2ccc(C(F)(F)F)cc2)C1=O (stereo partly shown) [compound 106, N-[[3-[(2-amino-3-mercapto-1-oxopropyl)methylamino]-2,3-dihydro-2-oxo-5-phenyl-7-chloro-1H-1,4-benzodiazepin-1-yl]methyl]-4-trifluoromethylbenzene] | – | – | – | 0.65 µM | 0.018 µM | 50000 nM
CN(C(=O)[C@@H](N)CS)C1N=C(c2ccccc2)c2cc(Cl)ccc2N(Cc2ccc(F)cc2)C1=O (stereo partly shown) [compound 108, N-[[3-[(2-amino-3-mercapto-1-oxopropyl)methylamino]-2,3-dihydro-2-oxo-5-phenyl-7-chloro-1H-1,4-benzodiazepin-1-yl]methyl]-4-fluorobenzene] | – | – | – | 0.0018 µM | 0.0018 µM | 50000 nM
CCOC(=O)[C@H](CCSC)NC(=O)CN1C(=O)C(N(C)C(=O)C2CSC(C)N2)N=C(c2ccccc2)c2ccccc21 (stereo partly drawn) [compound 109, N-[[3-[(2-methylthiazolidine-4-carboxyl)methylamino]-2,3-dihydro-2-oxo-5-phenyl-1H-1,4-benzodiazepin-1-yl]acetyl]-L-methionine ethyl ester] | – | – | – | 3.1 µM | 0.1 µM | 10000 nM
